Measured values from US8097773B2, “Process for selecting banana clones and banana clones obtained thereby” (Rahan Meristem (1998) Ltd, priority 2004, dated 2012).

What was measured:
Type in all cases: in vivo, Musa acuminata AAA, cv. 'Grande Naine'
[1] = tested on: Dwarf mutant banana Grande Naine plantlets; assay: Influence of GA3 on internode length of in-vitro banana plantlets (GA sensitivity bioassay), Dwarf
Experimental: (§1) Somaclonal variants with both high and low sensitivity to GA were generated as a consequence of an extensive duration in tissue culture. Both ‘off-types’ were detectable by a relatively simple bioassay developed in this laboratory (Table 4). […] On the other hand the ‘Extra Dwarf’ phenotype was insensitive to the presence of GA in the medium.
(§2) Meristem culture was performed on a single ‘Grande Naine’ clone employing a standard protocol used at Rahan Meristem. The meristems were sub-cultured extensively (23 cycles) to induce somaclonal variations. The in vitro plantlets were transferred to a stage III medium containing 10 ppm of gibberellic acid (GA). […] Further analysis of somaclonal variation was carried out in ex-vitro conditions. Following acclimatization, the plants were planted in 5 L pots and placed in a poly-ethylene covered greenhouse for approximately 16 weeks prior to selection of ‘off-types’. Candidate plants showing distinct somaclonal variations were selected and used for further analysis. Stability of the different mutations was monitored following the growth of the selected clones in a commercial plantation in Rosh Hanikra, Israel.

[2] = tested on: normal in-vitro banana Grande Naine plantlets; assay: Influence of GA3 on internode length of in-vitro banana plantlets (GA sensitivity bioassay), normal; details: GA3 10 mg/L in medium, grown 5 weeks, hormone-free control 14.2
Experimental: as §1, §2

[3] = tested on: Extra dwarf mutant banana Grande Naine plantlets; assay: Influence of GA3 on internode length of in-vitro banana plantlets (GA sensitivity bioassay), Extra dwarf
Experimental: as §1, §2

SMILES: C=C1C[C@]23C[C@@]1(O)CC[C@H]2[C@@]12C=C[C@H](O)[C@@](C)(C(=O)O1)[C@H]2[C@@H]3C(=O)O [GA3, gibberellic acid]
- "internode" length ([1]; Dwarf plantlets, GA3 10 mg/L in medium, grown 5 weeks, hormone-free control 10.8): 14.9 b cm
- sensitivity to GA ([1]; dwarf genotype, GA in the medium): showed sensitivity
- "internode" length [2]: 21.7 a cm
- sensitivity to GA ([3]; 'Extra Dwarf' phenotype, GA in the medium): insensitive
- "internode" length ([3]; Extra dwarf mutant plantlets, GA3 10 mg/L in medium, grown 5 weeks, hormone-free control 9.6): 9.6 cm·days
